The source of these data is publication PMC9804387, “Substrate Peptidomimetic Inhibitors of P. falciparum Plasmepsin X with Potent Antimalarial Activity” (Chemmedchem, 2022).

One series deals with T1, recombinant Pf PMX (Plasmodium falciparum, UniProt Q8IAS0).
T1 construct: made in house
The series can be described thus: PMX biochemical FRET assay (Rh2N fluorogenic substrate cleavage). The conditions noted are these: 37 °C. On the procedure:
FRET Protease Assays. FRET protease assays were performed as previously described.[19, 20, 27, 28] Briefly, ten‐point 1 : 3‐fold dilution series of the compounds were prepared in 384‐well black low volume assay plates (Greiner) using an Echo555 (Labcyte). 10 mM compound stocks were transferred into assay plates such that the starting concentration was 90 μM (Pv PMV assays), 11.25 μM (renin, cathepsin D and BACE‐1 assays) or 100 nM and 10 μM (Pf PMX and Pf PMIX assays). All wells were backfilled to 200 nL DMSO such that the DMSO concentration remained constant across the assay plates (1 % final). All compound potency assays were conducted in 20 μL total volume. For each assay, 10 μL of recombinant enzymes in respective assay buffers (Table S2) were dispensed into compound containing assay plates using a Multidrop‐Combi dispenser and allowed to incubate for 15 min. Recombinant Pf PMX, Pf PMIX and Pv PMV were expressed as previously described,[23, 27, 28] and recombinant human aspartyl proteases were purchased commercially. 10 μL of the fluorogenic peptide substrates incubated at 37 °C for the duration and conditions noted in Table S2. Samples were excited at 340 nm and fluorescence emission measured at 492 nm using an Envision fluorescence plate reader (Perkin‐Elmer). The 0 % inhibition control contained DMSO alone (1 % final) and the 100 % inhibition control was in the absence of enzyme. […]
(§1) Table S2 . P rotease FRET assay conditions.
(§2) PMX as sa y PMIX PM V assay Renin assay Cathepsin D assay BA CE-1 assay E nzy me prot e as e 0.25 nM pro te a se 6 nM prot e as e q ua nti ty 0.1 nM pro t ea se 1.5 nM pro t ea se 2.5 nM pro t ea se 3 nM (Pro te os #R-001) ( Athe ns Re sea rc h (Sigma #S4195) […]
(§3) 25mM so di um acetate, 100 mM 25 mM M E S, 25 m M 50 mM Tr is, 100 mM 100 mM so di u m 20 mM so dium Buffer acetate, 0.005% sodium chloride and Tris-HCl, 0.01% N aC l, 0. 1% Bri j-35, acetate 0.02% scetate, 0.05% […]
(§4) Sub str at e DABCYL- ( DA BC YL ) - DABCYL- DABCYL-(γ- Ab u) - E[E(EDANS)]KPIL […]

Series [1] concerns P. falciparum (Pf) 3D7 parasites. Kind of series: P. falciparum LDH viability assay. Type of series: cell-based. As to conditions: Plasmodium falciparum, 3D7, 72 h, LDH activity, 72 h at 37 °C; mean and SD of 3 independent experiments. On the procedure:
P. falciparum LDH Viability Assay. P. falciparum LDH viability assays were performed as previously described.[40] Briefly, a ten‐point 1 : 3‐fold dilution series of the compounds were pre‐dispensed in 384‐well assay plates (Grenier), and RPMI/AlbuMAX growth media inoculated with synchronized ring stage P. falciparum parasites. 10 mM compound stocks were transferred into the assay plates such that the starting concentration was 10 μM. Plates were incubated for 72 h and then frozen at −80 °C overnight. Lactate dehydrogenase (LDH) activity was quantified with APAD by measuring absorbance of NBT at 650 nm. Data were normalized to percent growth inhibition using the positive control of 0.1 % DMSO alone and the negative control of 100 nM chloroquine. Half‐maximal effective concentration (EC50) values were calculated by GraphPad Prism (8.0.2) software using a nonlinear regression four‐parameter fit analysis using a sigmoidal dose response (variable slope).

The next series in a line: in vitro. The conditions noted are these: human. In kind it is cell-based. The method, then: HepG2 Cytotoxicity Assay. HepG2 cytotoxicity assays were performed as previously described.[41] Briefly, human hepatocyte HepG2 cells were cultured in DMEM supplemented with 10 % FCS at 37 °C and 5 % CO2 in a humidified incubator. Cells were seeded at 1000 cells/well in 50 μL in 384‐well plates (Grenier) and compounds incubated in ten‐point 1 : 2‐fold dilution series for 48 h. Cytotoxicity was determined using Cell Titer‐Glo (Promega), normalized to DMSO alone controls (100 % viability) and control compound Bortezomib (0 % viability at 10 μM). CC50 values were calculated by GraphPad Prism (8.0.2) software using a nonlinear regression four‐parameter fit analysis with the sigmoidal dose response (variable slope).

The target in another series is T2, recombinant Pf PMIX (Plasmodium falciparum, UniProt Q8ILG2).
T2 construct: made in house
T2 sequence (Q8ILG2 whole entry): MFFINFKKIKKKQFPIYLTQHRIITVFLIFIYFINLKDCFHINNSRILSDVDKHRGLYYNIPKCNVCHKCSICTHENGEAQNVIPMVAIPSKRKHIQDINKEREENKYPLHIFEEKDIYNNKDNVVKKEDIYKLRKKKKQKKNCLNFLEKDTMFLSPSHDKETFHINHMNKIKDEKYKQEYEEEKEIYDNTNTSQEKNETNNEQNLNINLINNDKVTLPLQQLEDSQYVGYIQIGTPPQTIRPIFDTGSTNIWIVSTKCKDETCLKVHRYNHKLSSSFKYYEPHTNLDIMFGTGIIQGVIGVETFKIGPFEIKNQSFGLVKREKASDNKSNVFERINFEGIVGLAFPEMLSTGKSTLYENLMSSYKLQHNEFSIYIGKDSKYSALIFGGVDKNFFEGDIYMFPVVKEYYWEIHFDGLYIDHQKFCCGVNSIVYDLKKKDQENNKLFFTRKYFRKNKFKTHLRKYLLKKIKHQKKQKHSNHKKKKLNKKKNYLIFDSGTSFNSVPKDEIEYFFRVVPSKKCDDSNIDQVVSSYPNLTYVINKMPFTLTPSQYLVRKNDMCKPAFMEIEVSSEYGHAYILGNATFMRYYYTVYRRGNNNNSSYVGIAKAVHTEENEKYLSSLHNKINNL
The series can be described thus: PMIX FRET protease assay. The conditions noted are these: mean and SD of 4 replicate FRET experiments, 37 °C. In kind it is biochemical, P. falciparum. The method, then:
(§5) FRET Protease Assays. FRET protease assays were performed as previously described.[19, 20, 27, 28] Briefly, ten‐point 1 : 3‐fold dilution series of the compounds were prepared in 384‐well black low volume assay plates (Greiner) using an Echo555 (Labcyte). 10 mM compound stocks were transferred into assay plates such that the starting concentration was 90 μM (Pv PMV assays), 11.25 μM (renin, cathepsin D and BACE‐1 assays) or 100 nM and 10 μM (Pf PMX and Pf PMIX assays). All wells were backfilled to 200 nL DMSO such that the DMSO concentration remained constant across the assay plates (1 % final). All compound potency assays were conducted in 20 μL total volume. For each assay, 10 μL of recombinant enzymes in respective assay buffers (Table S2) were dispensed into compound containing assay plates using a Multidrop‐Combi dispenser and allowed to incubate for 15 min. Recombinant Pf PMX, Pf PMIX and Pv PMV were expressed as previously described,[23, 27, 28] and recombinant human aspartyl proteases were purchased commercially. 10 μL of the fluorogenic peptide substrates incubated at 37 °C for the duration and conditions noted in Table S2. Samples were excited at 340 nm and fluorescence emission measured at 492 nm using an Envision fluorescence plate reader (Perkin‐Elmer). The 0 % inhibition control contained DMSO alone (1 % final) and the 100 % inhibition control was in the absence of enzyme. Half‐maximal inhibitory concentration (IC50) values were calculated by GraphPad Prism (8.0.2) software using a nonlinear regression four‐parameter fit analysis using a sigmoidal dose response (variable slope).
as §1, §2, §3, §4

In the next series the target is T3, recombinant Pv PMV (Plasmodium vivax, UniProt A5K302).
T3 construct: made in house
T3 sequence (A5K302 35-536): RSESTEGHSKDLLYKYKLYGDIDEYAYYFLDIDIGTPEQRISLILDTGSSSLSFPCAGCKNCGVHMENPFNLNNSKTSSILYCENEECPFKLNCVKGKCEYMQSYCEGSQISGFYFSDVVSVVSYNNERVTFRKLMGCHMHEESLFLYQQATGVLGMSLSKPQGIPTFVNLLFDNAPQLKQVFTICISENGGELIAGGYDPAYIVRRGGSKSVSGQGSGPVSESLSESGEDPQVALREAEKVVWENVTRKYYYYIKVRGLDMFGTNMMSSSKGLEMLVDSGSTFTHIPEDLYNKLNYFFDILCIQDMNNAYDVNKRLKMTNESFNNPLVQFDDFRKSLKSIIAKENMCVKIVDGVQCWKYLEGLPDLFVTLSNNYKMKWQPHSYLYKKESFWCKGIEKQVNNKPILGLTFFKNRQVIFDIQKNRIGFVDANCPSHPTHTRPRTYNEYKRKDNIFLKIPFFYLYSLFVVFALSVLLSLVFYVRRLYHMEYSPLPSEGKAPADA
The series can be described thus: PMV FRET protease assay. Type of series: biochemical. On the procedure:
as §5, §1, §2, §3, §4

A further series has as its target T4, cathepsin D (Homo sapiens, UniProt P07339).
T4 construct: purchased Athens Research 16-12-030104
Kind of series: Cathepsin D FRET protease assay. Type of series: biochemical. As to conditions: mean and SD of 4 replicate FRET experiments, 37 °C; highest concentration tested 11 μM.

Another series addresses T5, BACE‐1 (Homo sapiens, UniProt P56817).
T5 construct: purchased Sigma S4195
The series can be described thus: BACE-1 FRET protease assay. In kind it is biochemical. The conditions noted are these: mean and SD of 4 replicate FRET experiments, 37 °C; highest concentration tested 11 μM.

In another series the target is T6, renin (Homo sapiens, UniProt P00797).
T6 construct: purchased Proteos R-001
T6 sequence (P00797 67-406): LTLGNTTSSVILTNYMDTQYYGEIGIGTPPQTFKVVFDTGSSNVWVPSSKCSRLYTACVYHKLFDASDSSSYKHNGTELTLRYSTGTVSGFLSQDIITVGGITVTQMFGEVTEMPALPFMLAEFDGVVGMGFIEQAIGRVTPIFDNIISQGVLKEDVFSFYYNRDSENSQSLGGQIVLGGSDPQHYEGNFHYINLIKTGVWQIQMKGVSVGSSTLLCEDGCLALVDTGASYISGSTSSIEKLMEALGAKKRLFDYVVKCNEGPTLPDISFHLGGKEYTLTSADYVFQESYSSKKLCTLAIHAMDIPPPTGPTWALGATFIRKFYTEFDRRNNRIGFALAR
Kind of series: Renin FRET protease assay. In kind it is biochemical. As to conditions: mean and SD of 4 replicate FRET experiments, 37 °C; highest concentration tested 11 μM.

Series [2] has as its system PMIX processing of the ASP protein. The series can be described thus: ASP processing inhibition assay in parasites (western blot, anti-HA). In kind it is cell-based, P. falciparum. The conditions noted are these: WM382 (1) at 2.5 nM, HA‐tagged ASP parasites. On the procedure:
(§6) In this experiment, synchronized late trophozoite/early schizont stage parasites, expressing HA‐tagged ASP, were incubated with 38 (10 μM), the positive control WM382 (1) (2.5 nM) (a dual potent inhibitor of PMIX and PMX) and the DMSO vehicle control. Parasites from each treatment condition were then lysed and the processing of the known PMX and PMIX substrates were detected by western blot as a corollary of protease activity.
P. falciparum ASP and SERA5 Processing Inhibition Assay. P. falciparum substrate processing inhibition assays were performed as previously described.[28] Synchronized ring stage cultures were treated with test compounds 38 (10 μM) and WM382 (2.5 nM)[28] or DMSO as a vehicle control. The parasite cultures were grown to the schizont stage before passing over LD magnetic columns (Miltenyi Biotech) to remove uninfected erythrocytes. Parasites were eluted from columns with RPMI 1640 (in‐house) culture medium to which the appropriate inhibitor at the same concentration had been added. Eluted parasites were adjusted to 5×10^6 schizonts/mL and 150 μL added per well of a 96‐well flat‐bottomed culture plate. […] HA‐tagged apical sushi protein (ASP) was detected in the merozoite fraction with anti‐HA mAb and SERA5 was detected in the supernatant fraction with an anti‐SERA5 polyclonal Ab. […]
Background: In western blotting, separated proteins are transferred to a membrane and probed.

For series [3], the system named is SERA5 processing by SUB1, indicative of upstream activity by PMX. The series can be described thus: SERA5 processing inhibition assay in parasites (western blot, anti-SERA5). Type of series: cell-based, P. falciparum. As to conditions: WM382 (1) at 2.5 nM.
Excerpt: PMX and PMIX ligand cleavage in P. falciparum parasites. It was next determined whether 38 could inhibit PMX and PMIX processing of known invasion and egress ligands in P. falciparum parasites. […] SERA5 is not a direct substrate of PMX, but is processed by SUB1 which itself is activated by PMX. The degree of downstream processing of SERA5 by SUB1 is indicative of PMX activity.
as §6
P. falciparum ASP and SERA5 Processing Inhibition Assay. P. falciparum substrate processing inhibition assays were performed as previously described.[28] Synchronized ring stage cultures were treated with test compounds 38 (10 μM) and WM382 (2.5 nM)[28] or DMSO as a vehicle control. […] HA‐tagged apical sushi protein (ASP) was detected in the merozoite fraction with anti‐HA mAb and SERA5 was detected in the supernatant fraction with an anti‐SERA5 polyclonal Ab. […]

A further series deals with Pf 3D7. Details: method as in PMID 29074775, PMID 32109369, PMID 23260352, PMID 29519896. As to conditions: Figure 1, described in literature; cited from earlier work.
The test system of another series is PMX. The conditions noted are these: Figure 1, described in literature; cited from earlier work.
A further series has as its system PMIX. Details: method as in PMID 29074775, PMID 32109369, PMID 23260352, PMID 29519896. The conditions noted are these: Figure 1, described in literature; cited from earlier work.
[4] abbreviates: recombinant PMX, fluorogenic substrate (Rh2N) cleavage, 4 h, mean and SD of 4 replicates (Tables 1, 2).

T1 sequence (Q8IAS0 222-573): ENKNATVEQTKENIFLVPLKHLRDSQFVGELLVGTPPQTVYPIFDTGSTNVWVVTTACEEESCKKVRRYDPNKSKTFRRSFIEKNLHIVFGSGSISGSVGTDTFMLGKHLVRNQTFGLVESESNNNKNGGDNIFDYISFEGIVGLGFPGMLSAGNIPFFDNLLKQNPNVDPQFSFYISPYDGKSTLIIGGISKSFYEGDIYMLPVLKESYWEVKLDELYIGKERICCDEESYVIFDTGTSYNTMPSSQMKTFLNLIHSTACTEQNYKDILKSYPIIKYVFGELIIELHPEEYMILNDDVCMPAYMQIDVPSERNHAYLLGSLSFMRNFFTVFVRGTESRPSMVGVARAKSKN
T4 sequence (P07339 65-412): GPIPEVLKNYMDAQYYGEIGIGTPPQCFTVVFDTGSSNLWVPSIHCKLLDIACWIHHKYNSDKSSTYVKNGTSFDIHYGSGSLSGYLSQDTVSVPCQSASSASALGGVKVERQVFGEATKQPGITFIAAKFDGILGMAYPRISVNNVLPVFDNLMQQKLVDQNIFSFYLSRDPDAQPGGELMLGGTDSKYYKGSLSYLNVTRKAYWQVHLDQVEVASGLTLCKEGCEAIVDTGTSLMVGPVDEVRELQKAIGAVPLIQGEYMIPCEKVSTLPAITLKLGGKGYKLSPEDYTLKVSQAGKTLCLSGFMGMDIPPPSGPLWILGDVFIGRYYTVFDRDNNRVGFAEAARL
T5 sequence (P56817 46-460 limits assumed): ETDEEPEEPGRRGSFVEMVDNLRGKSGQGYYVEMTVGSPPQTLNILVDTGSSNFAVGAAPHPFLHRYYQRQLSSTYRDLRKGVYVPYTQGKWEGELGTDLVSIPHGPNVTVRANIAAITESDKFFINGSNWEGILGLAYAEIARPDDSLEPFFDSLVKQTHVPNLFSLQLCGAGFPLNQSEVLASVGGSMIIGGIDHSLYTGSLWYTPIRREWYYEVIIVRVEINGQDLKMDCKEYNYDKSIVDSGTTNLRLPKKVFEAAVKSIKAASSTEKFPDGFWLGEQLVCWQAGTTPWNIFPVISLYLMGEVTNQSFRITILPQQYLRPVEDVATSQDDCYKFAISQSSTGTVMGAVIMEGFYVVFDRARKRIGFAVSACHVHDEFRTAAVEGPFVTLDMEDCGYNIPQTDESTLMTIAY

As usually defined, the IC50 is the concentration at which inhibition is half-maximal. A word on the EC50: it is the concentration giving half of the maximal effect. By CC50 is commonly meant the concentration at which the toxic effect on the cells reaches its halfway point. Higher therefore signals better tolerance by the cells. With `CCC(C)[C@H](NC(=O)OCc1ccccc1)C(=O)N[C@@H](Cc1ccccc1)[C@H](O)CN[C@H](C)c1ccccc1` (stereo partly shown) [Compd 37, Cbz‐Ile‐Phe‐HEA‐Bn(CH3)], the IC50 on recombinant Pf PMX (setting [4]) was 20 nM; at recombinant Pf PMIX, 14700 nM; on recombinant Pv PMV, above 90000 nM; against cathepsin D it was 200 nM; at BACE‐1, above 11000 nM; against renin it was above 11000 nM. Moreover, a half-maximal effect in series [1] (EC50) was put at 140 nM. The 50% cytotoxic concentration (CC50) at 48 h in the series “in vitro” is above 40000 nM.

Regarding `CC(C)[C@H](NC(=O)OCc1ccccc1)C(=O)N[C@@H](Cc1ccccc1)[C@H](O)CN[C@H](C)c1ccccc1` [Compd 34, Cbz‐Val‐Phe‐HEA‐Bn(CH3)], the IC50 at recombinant Pf PMX (Table 3, mean and SD of 4 replicate FRET experiments) is 10 nM; on recombinant Pf PMX (setting [4]), 10 nM; on recombinant Pf PMIX it was 6900 nM; at recombinant Pv PMV it was above 90000 nM; against cathepsin D, above 11000 nM; at BACE‐1, above 11000 nM. This compound yielded an IC50 on renin above 11000 nM. In [1], this compound returned an EC50 of 50 nM. Further, it took 13000 nM to reach half-maximal cytotoxicity in “in vitro” (CC50 at 48 h).

On to `CCC1(CC)CC(=O)N([C@@H]2CCOc3ccc(C(=O)N[C@H]4CC(C)(C)Oc5ccccc54)cc32)C(=N)N1` [WM382], for which the “ASP processing by PMIX (western blot)” value in [2] is listed as “inhibition of ASP processing”. Also, the “SERA5 processing (western blot)” value in [3] is “complete inhibition of SERA5 processing”. The EC50 in the series with Pf 3D7 is 0.6 nM. The figures for the IC50 in the series on PMX and in the series on PMIX were 0.04 nM and 0.4 nM, respectively.
